Experimental data taken from patent US10112929B2, “Lactams as inhibitors of rock” (BRISTOL-MYERS SQUIBB COMPANY, priority 2015, dated 2018).

These compounds were tested against ROCK2 (Homo sapiens (Human), UniProt O75116) (assay: biochemical).
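Note: rho kinase enzyme reaction halted with EDTA, phospho- and non-phospho peptide separated for read-out, kinase activity inhibition derived across a dose-response series, DMSO under 2%.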

ROCK2, sequence (O75116 whole entry, species assumed): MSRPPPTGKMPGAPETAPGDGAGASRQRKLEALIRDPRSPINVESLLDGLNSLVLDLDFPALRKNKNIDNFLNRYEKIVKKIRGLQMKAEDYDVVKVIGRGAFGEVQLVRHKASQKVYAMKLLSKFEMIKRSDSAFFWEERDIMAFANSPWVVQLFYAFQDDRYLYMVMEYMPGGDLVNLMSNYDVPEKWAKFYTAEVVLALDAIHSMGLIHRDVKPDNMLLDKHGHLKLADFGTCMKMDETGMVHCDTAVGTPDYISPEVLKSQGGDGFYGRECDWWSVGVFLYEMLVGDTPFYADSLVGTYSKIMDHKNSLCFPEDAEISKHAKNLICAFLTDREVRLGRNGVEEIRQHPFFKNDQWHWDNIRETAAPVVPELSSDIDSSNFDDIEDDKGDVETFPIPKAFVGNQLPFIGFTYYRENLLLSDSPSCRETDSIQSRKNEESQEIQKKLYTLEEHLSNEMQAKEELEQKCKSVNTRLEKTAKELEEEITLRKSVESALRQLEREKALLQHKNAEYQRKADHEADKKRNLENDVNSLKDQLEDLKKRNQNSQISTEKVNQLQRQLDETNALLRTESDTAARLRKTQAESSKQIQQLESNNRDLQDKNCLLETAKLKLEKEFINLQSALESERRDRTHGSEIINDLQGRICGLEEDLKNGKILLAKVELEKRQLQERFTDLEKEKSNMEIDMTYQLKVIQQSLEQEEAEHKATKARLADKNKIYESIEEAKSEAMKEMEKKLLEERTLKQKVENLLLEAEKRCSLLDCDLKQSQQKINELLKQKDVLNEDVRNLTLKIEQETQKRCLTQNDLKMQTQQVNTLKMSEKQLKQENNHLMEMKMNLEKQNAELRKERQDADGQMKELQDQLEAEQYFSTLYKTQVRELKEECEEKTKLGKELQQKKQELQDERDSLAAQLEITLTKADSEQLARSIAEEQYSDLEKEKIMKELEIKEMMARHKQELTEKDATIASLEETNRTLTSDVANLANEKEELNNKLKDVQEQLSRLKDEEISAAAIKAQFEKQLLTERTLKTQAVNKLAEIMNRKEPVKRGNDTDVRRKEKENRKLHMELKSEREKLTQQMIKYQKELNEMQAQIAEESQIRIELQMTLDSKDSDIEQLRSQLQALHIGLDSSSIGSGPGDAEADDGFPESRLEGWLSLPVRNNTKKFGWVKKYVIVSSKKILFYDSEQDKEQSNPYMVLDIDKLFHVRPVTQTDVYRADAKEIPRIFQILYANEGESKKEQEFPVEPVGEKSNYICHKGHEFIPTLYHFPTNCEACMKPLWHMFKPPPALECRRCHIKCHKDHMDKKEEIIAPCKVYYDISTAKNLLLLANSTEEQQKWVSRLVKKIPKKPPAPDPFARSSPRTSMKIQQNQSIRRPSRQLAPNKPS

Compound | IC50 [nM]
CCc1cc(N2CCC(Nc3ccc(F)c(OCC4CC4)c3)C2=O)ncc1-c1cn[nH]c1 (racemic) [Example 213, 3-((3-(cyclopropylmethoxy)-4-fluorophenyl)amino)-1-(4-ethyl-5-(1H-pyrazol-4-yl)pyridin-2-yl)pyrrolidin-2-one] | 100 to 2200
COc1cc(NC2CCN(c3ccc(-c4cn[nH]c4)c(OC)n3)C2=O)ccc1F (single isomer, unassigned) [Example 207, 3-((4-fluoro-3-methoxyphenyl)amino)-1-(6-methoxy-5-(1H-pyrazol-4-yl)pyridin-2-yl)pyrrolidin-2-one] | < 10
COc1cc(F)cc(NC2CCN(c3ccc(-c4cn[nH]c4)cc3)C2=O)c1 (single isomer, unassigned) [Example 26, 1-(4-(1H-pyrazol-4-yl)phenyl)-3-((3-fluoro-5-methoxyphenyl)amino)pyrrolidin-2-one] | < 10
CCc1nc(N2CCC(Nc3ccc(F)c(OC)c3)C2=O)ccc1-c1cn[nH]c1 (single isomer, unassigned) [Example 318, 1-(6-ethyl-5-(1H-pyrazol-4-yl)pyridin-2-yl)-3-((4-fluoro-3-methoxyphenyl)amino) pyrrolidin-2-one] | 10 to 100
COc1nc(N2CCC(N3CCOC[C@H]3C)C2=O)ccc1-c1cn[nH]c1 (mixture of isomers) [Example 274, 1-(6-methoxy-5-(1H-pyrazol-4-yl)pyridin-2-yl)-3-((R)-3-methylmorpholino) pyrrolidin-2-one] | 10 to 100
CC(C)Oc1cccc(NC2CCN(c3ccc(-c4cn[nH]c4)cc3)C2=O)c1 (stereo not shown) [Example 10, 1-(4-(1H-pyrazol-4-yl)phenyl)-3-((3-isopropoxyphenyl)amino)pyrrolidin-2-one] | 10 to 100
COc1cc(NC2CCN(c3cc(F)c(-c4cn[nH]c4)cc3F)C2=O)ccc1F (single isomer, unassigned) [Example 350, 1-(2,5-difluoro-4-(1H-pyrazol-4-yl)phenyl)-3-((4-fluoro-3-methoxyphenyl)amino)pyrrolidin-2-one] | 100 to 2200
COc1cc(F)cc(NC2CCN(c3ccc(-c4cn[nH]c4)c(C)n3)C2=O)c1 (single isomer, unassigned) [Example 192, 3-((3-fluoro-5-methoxyphenyl)amino)-1-(6-methyl-5-(1H-pyrazol-4-yl)pyridin-2-yl)pyrrolidin-2-one] | 10 to 100
COc1cc(F)cc(NC2CCN(c3ccc(-c4cn[nH]c4)c(C(F)(F)F)c3)C2=O)c1 (single isomer, unassigned) [Example 370, 1-(4-(1H-pyrazol-4-yl)-3-(trifluoromethyl)phenyl)-3-((3-fluoro-5-methoxyphenyl)amino)pyrrolidin-2-one] | 10 to 100
COc1cc(F)cc(NC2CCN(c3ccc(-c4cn[nH]c4)cn3)C2=O)c1 (single isomer, unassigned) [Example 88, 1-(5-(1H-pyrazol-4-yl)pyridin-2-yl)-3-((3-fluoro-5-methoxyphenyl)amino)pyrrolidin-2-one] | < 10
Cc1nc(N2CCC(Nc3cccc(OCC4CC4)c3)C2=O)ccc1-c1cn[nH]c1 (single isomer, unassigned) [Example 190, 3-((3-(cyclopropylmethoxy)phenyl)amino)-1-(6-methyl-5-(1H-pyrazol-4-yl)pyridin-2-yl)pyrrolidin-2-one] | 10 to 100
CCc1cc(N2CCC(Nc3cccc(OC)c3)C2=O)ccc1-c1cn[nH]c1 (single isomer, unassigned) [Example 244, 1-(3-ethyl-4-(1H-pyrazol-4-yl)phenyl)-3-((3-methoxyphenyl)amino)pyrrolidin-2-one] | < 10
COc1cc(F)cc(NC2CCN(c3ccc(-c4cn[nH]c4)c(F)c3)C2=O)c1 (single isomer, unassigned) [Example 49, 1-(3-fluoro-4-(1H-pyrazol-4-yl)phenyl)-3-((3-fluoro-5-methoxyphenyl)amino)pyrrolidin-2-one] | < 10
COc1nc(N2CCC(Nc3cccc(S(N)(=O)=O)c3)C2=O)ccc1-c1cn[nH]c1 (racemic) [Example 268, 3-((1-(6-methoxy-5-(1H-pyrazol-4-yl)pyridin-2-yl)-2-oxopyrrolidin-3-yl)amino)benzenesulfonamide] | < 10
COc1cccc2c1N(C1CCN(c3ccc(-c4cn[nH]c4)cc3)C1=O)CC2 (single isomer, unassigned) [Example 52, 1-(4-(1H-pyrazol-4-yl)phenyl)-3-(7-methoxyindolin-1-yl)pyrrolidin-2-one] | 100 to 2200
COc1ccc(F)c(NC2CCN(c3ccc(-c4cn[nH]c4)c(OC)c3)C2=O)c1 (single isomer, unassigned) [Example 147, 3-((2-fluoro-5-methoxyphenyl)amino)-1-(3-methoxy-4-(1H-pyrazol-4-yl)phenyl) pyrrolidin-2-one] | 10 to 100
COc1cc(F)ccc1NC1CCN(c2ccc(-c3cn[nH]c3)c(OC)c2)C1=O (single isomer, unassigned) [Example 143, 3-((4-fluoro-2-methoxyphenyl)amino)-1-(3-methoxy-4-(1H-pyrazol-4-yl)phenyl) pyrrolidin-2-one] | 100 to 2200
COc1cc(NC2CCN(c3ccc(-c4cn[nH]c4)cc3)C2=O)ccc1F (stereo not shown) [Example 4, 1-(4-(1H-pyrazol-4-yl)phenyl)-3-((4-fluoro-3-methoxyphenyl)amino)pyrrolidin-2-one] | < 10
COCc1cc(N2CCC(Nc3cc(F)cc(OC)c3)C2=O)ccc1-c1cn[nH]c1 (single isomer, unassigned) [Example 186, 3-((3-fluoro-5-methoxyphenyl)amino)-1-(3-(methoxymethyl)-4-(1H-pyrazol-4-yl)phenyl)pyrrolidin-2-one] | 10 to 100
COc1nc(N2CCC(Nc3cccc(OCC4CC4)c3)C2=O)ccc1-c1cn[nH]c1 (single isomer, unassigned) [Example 214, 3-((3-(cyclopropylmethoxy)phenyl)amino)-1-(6-methoxy-5-(1H-pyrazol-4-yl)pyridin-2-yl)pyrrolidin-2-one] | < 10
COc1cc(N2CCC(Nc3cccc(OC(F)F)c3)C2=O)ccc1-c1cn[nH]c1 (stereo not shown) [Example 69, 3-((3-(difluoromethoxy)phenyl)amino)-1-(3-methoxy-4-(1H-pyrazol-4-yl)phenyl)pyrrolidin-2-one] | 10 to 100
COc1cc(NC2CCN(c3ccc(-c4cn[nH]c4)c(Cl)c3)C2=O)ccc1F (single isomer, unassigned) [Example 161, 1-(3-chloro-4-(1H-pyrazol-4-yl)phenyl)-3-((4-fluoro-3-methoxyphenyl)amino) pyrrolidin-2-one] | < 10
COc1cc(F)cc(NC2CCN(c3ccc(-c4cn[nH]c4)c(Cl)c3)C2=O)c1 (single isomer, unassigned) [Example 158, 1-(3-chloro-4-(1H-pyrazol-4-yl)phenyl)-3 ((3-fluoro-5-methoxyphenyl)amino) pyrrolidin-2-one] | 100 to 2200
O=C1C(Nc2cccc(OC(F)F)c2)CCN1c1ccc(-c2cn[nH]c2)cc1 (stereo not shown) [Example 7, 1-(4-(1H-pyrazol-4-yl)phenyl)-3-((3-(difluoromethoxy)phenyl)amino)pyrrolidin-2-one] | < 10
CNc1nc(N2CCC(Nc3cccc(OC)c3)C2=O)ccc1-c1cn[nH]c1 (single isomer, unassigned) [Example 253, 3-((3-methoxyphenyl)amino)-1-(6-(methylamino)-5-(1H-pyrazol-4-yl)pyridin-2-yl)pyrrolidin-2-one] | 10 to 100
